This note sets out measurements from patent publication US11214803B2, “Modulators of YAP1 expression” (Ionis Pharmaceuticals, Inc., priority 2019, dated 2022).

Strand notation (5' to 3'): a small letter for the sugar, then the base; units joined by * are phosphorothioate-linked, units joined directly phosphodiester-linked; [ ] holds rarer units or linkages, { } end groups; capitals alone tell only the bases. k = constrained ethyl (cEt); [5mC] = 5-methylcytosine; d = 2'-deoxy (DNA)

The data set deals with Yap1 mRNA. In words: Antisense inhibition of human Yap1 in A-431 cells by cEt gapmers, single dose (Example 2, RTS4814). In kind it is cell-based. The essentials: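 Free uptake, 2,000 nM, ~48 h, A-431 at 5,000 cells/well. Readout: RT-qPCR (RTS4814), RIBOGREEN-normalized, % UTC. 16-mer 3-10-3 cEt gapmers, full PS backbone, all C as 5-methylcytosine.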
[1] abbreviates: Table 18, A-431 cells, 5,000 cells per well, free uptake, 2,000 nM modified oligonucleotide, approx. 48 hours, RTS4814, normalized to RIBOGREEN, Yap1 mRNA as percent of untreated control.
The mark [2] stands for this setting: Table 19, A-431 cells, 5,000 cells per well, free uptake, 2,000 nM modified oligonucleotide, approx. 48 hours, RTS4814, normalized to RIBOGREEN, Yap1 mRNA as percent of untreated control.
Where [3] appears, read: Table 32, Yap1 mRNA, percent of untreated control, 3-10-3 cEt gapmers targeting SEQ ID NO.: 1, and 2.
Where [4] appears, read: Table 33, Yap1 mRNA, percent of untreated control, 3-10-3 cEt gapmers targeting SEQ ID NO.: 1, and 2.
Where [5] appears, read: Table 6, A-431 cells, 5,000 cells per well, free uptake, 2,000 nM modified oligonucleotide, approx. 48 hours, RTS4814, normalized to RIBOGREEN, Yap1 mRNA relative to untreated control cells.
Setting [6] is: Table 24, Yap1 mRNA as percent of untreated control, 3-10-3 cEt gapmers targeting SEQ ID NO.: 1, and 2.

On to “1074340 (antisense kT*k[5mC]*k[5mC]*d[5mC]*dG*dG*dG*dA*dG*dA*dA*dG*dA*k[5mC]*kA*k[5mC]) [Compound 1074340]”, for which the “YAP1 (% UTC)” value under setting [1] is listed as 120 % UTC.

On to “1074631 (antisense k[5mC]*kA*kT*dA*dG*d[5mC]*dA*dG*d[5mC]*dT*dT*dT*dT*kG*k[5mC]*k[5mC]) [Compound 1074631]”, for which, for the setting “Table 21, Yap1 mRNA, percent of untreated control, 3-10-3 cEt gapmers targeting SEQ ID NO.: 1 and 2”, the “YAP1 (% UTC)” value was 9 % UTC.

Turning to “716493 (kA*k[5mC]*kA*dT*dT*dG*dA*dA*dA*dG*dA*d[5mC]*d[5mC]*k[5mC]*kT*kT; antisense) [Compound 716493]”, the “YAP1 (% UTC)” value (A-431 cells, 5,000 cells per well, free uptake, 2,000 nM modified oligonucleotide, approx. 48 hours, RTS4814, normalized to RIBOGREEN, Table 4, asterisk (*) = targets amplicon region of primer probe set) worked out at 30 % UTC.

In the case of “1075525 (kT*kT*kA*dA*dT*dT*dA*dA*dG*dG*dG*d[5mC]*d[5mC]*k[5mC]*kA*k[5mC]; antisense) [Compound 1075525]”, under setting [2], the “YAP1 (% UTC)” value stood at 130 % UTC.

As to “1074546 (k[5mC]*kA*k[5mC]*dT*d[5mC]*d[5mC]*d[5mC]*d[5mC]*dT*dA*dG*dG*d[5mC]*kA*k[5mC]*kT; antisense) [compound 1074546]”, the “YAP1 (% UTC)” value under setting [3] is recorded as 33 % UTC.

On to “1075302 (k[5mC]*k[5mC]*kT*dT*dA*dA*dA*dG*d[5mC]*dT*dT*d[5mC]*d[5mC]*kA*k[5mC]*k[5mC]; antisense) [Compound 1075302]”, for which the “YAP1 (% UTC)” value (Table 20, Yap1 mRNA, percent of untreated control, 3-10-3 cEt gapmers targeting SEQ ID NO.: 1 and 2) was 75 % UTC.

On to “1075859 (antisense kA*k[5mC]*kT*dT*dA*dT*d[5mC]*dA*d[5mC]*dT*d[5mC]*dT*dG*k[5mC]*k[5mC]*k[5mC]) [compound 1075859]”, for which the “YAP1 (% UTC)” value under setting [4] was 20 % UTC.

“1074665 (antisense kT*kT*kG*d[5mC]*dA*dT*dT*d[5mC]*dT*dA*dG*dG*dT*kA*kG*kA) [Compound 1074665]”: where the note is “Table 23, Yap1 mRNA as percent of untreated control, 3-10-3 cEt gapmers, single dose”, the “YAP1 (% UTC)” value is given as 17 % UTC.

For the substance “1076145 (k[5mC]*k[5mC]*kT*dT*dA*dT*dA*dG*dG*dT*dT*dA*dT*kA*kG*kT; antisense) [compound 1076145]”, the “YAP1 (% UTC)” value (Yap1 mRNA as percent of untreated control, A-431 cells, 3-10-3 cEt gapmers targeting SEQ ID NO.: 1, and 2, Table 31) is 41 % UTC.

With “1074987 (antisense kG*k[5mC]*k[5mC]*dG*d[5mC]*dG*dG*d[5mC]*dT*d[5mC]*d[5mC]*d[5mC]*dG*kA*kG*k[5mC]) [Compound 1074987]”, where the note is “Table 25, Yap1 mRNA as percent of untreated control, 3-10-3 cEt gapmers targeting SEQ ID NO.: 1, and 2”, the “YAP1 (% UTC)” value came out at 94 % UTC.

Regarding “1076146 (kG*k[5mC]*kT*dA*dA*dA*dA*d[5mC]*dT*dT*dT*d[5mC]*dA*kT*k[5mC]*k[5mC]; antisense) [compound 1076146]”, the “YAP1 (% UTC)” value under setting [3] was 23 % UTC.

Turning to “1074408 (antisense kG*kA*kT*dT*dA*dA*dA*dG*dT*dA*dT*d[5mC]*dT*kT*kG*k[5mC]) [Compound 1074408]”, the “YAP1 (% UTC)” value (Table 22, Yap1 mRNA as percent of untreated control, 3-10-3 cEt gapmers, single dose) is reported as 23 % UTC.

With “716432 (kT*k[5mC]*kT*dG*dA*dG*dT*dA*dT*dT*dT*dA*dG*kT*kT*kA; antisense) [Compound 716432]”, under setting [5], the “YAP1 (% UTC)” value was determined as 30 % UTC.

Take “716519 (antisense kG*kT*kT*dT*dA*dT*dA*dA*dA*dG*dT*dT*d[5mC]*kT*k[5mC]*kT) [Compound 716519]”: under setting [5], the “YAP1 (% UTC)” value is reported as 57 % UTC.

With “1075365 (k[5mC]*kA*k[5mC]*dG*dA*dA*dA*dA*dT*dA*dG*dT*dT*k[5mC]*kT*k[5mC]; antisense) [Compound 1075365]”, under setting [2], the “YAP1 (% UTC)” value is given as 11 % UTC.

Take “1075507 (kG*kT*kA*d[5mC]*dA*dA*d[5mC]*d[5mC]*dT*dA*dG*dT*dG*kA*kT*kA; antisense) [compound 1075507]”: the “YAP1 (% UTC)” value under setting [4] turned out to be 82 % UTC.

As to “1074794 (k[5mC]*kA*kA*dA*dT*d[5mC]*dA*dA*dT*dG*dT*dG*d[5mC]*kT*k[5mC]*k[5mC]; antisense) [Compound 1074794]”, the “YAP1 (% UTC)” value under setting [6] is recorded as 5 % UTC.

In the case of “1074244 (antisense k[5mC]*kT*k[5mC]*dT*dG*dA*d[5mC]*d[5mC]*dA*dG*dA*dA*dG*kA*kT*kG) [Compound 1074244]”, the “YAP1 (% UTC)” value under setting [1] is listed as 95 % UTC.

With “1074250 (antisense k[5mC]*kT*kG*dA*dT*d[5mC]*dG*dA*dT*dG*dT*dG*dA*kT*kT*kT) [Compound 1074250]”, the “YAP1 (% UTC)” value under setting [6] is on record as 6 % UTC.

“1074378 (antisense kG*kA*kA*dA*d[5mC]*dG*dG*dT*dT*d[5mC]*dT*dG*d[5mC]*kT*kG*kT) [Compound 1074378]”: under setting [6], the “YAP1 (% UTC)” value is listed as 31 % UTC.
